Experimental data reported in US9862792B2, “Diblock copolymers and polynucleotide complexes thereof for delivery into cells” (University of Washington, priority 2008, dated 2018).

Legend:
[1] = system: caspase 3/7; experiment: Caspase 3/7 activity assay in HeLas; format: cell-based, human; details: HeLa, 30 minutes, 25 μM peptide or equivalent polymer; relative to no treatment
Description: Caspase 3/7 Activity Assay. Caspase 3/7 activation was measured using a commercially available assay kit. This assay utilizes a profluorescent caspase 3/7 substrate that once enzymatically cleaved becomes fluorescent allowing for determination of relative enzyme activity using a fluorescent plate reader. Here, HeLas were incubated for 30 minutes with 25 μM peptide (alone or as polymer conjugate) in addition to polymer alone in a quantity equivalent to the conjugate samples. Afterwards, a caspase 3/7 fluorigenic indicator was added directly to the culture media for each sample. Plates were shaken for 1 hour and then assayed using a fluorescent plate reader. Data were expressed as percent caspase activity relative to samples receiving no treatment.

[2] = system: mitochondrial membrane potential in HeLas; experiment: Flow cytometry of mitochondrial membrane potential (JC-1 dye); format: cell-based, human; details: HeLa, 2 hours, 10 μM peptide or equivalent conjugate or polymer alone; versus no treatment
Description: Flow Cytometry Evaluation of Mitochondrial Membrane Potential. Loss of mitochondrial membrane potential, a known indicator for apoptosis, was assessed using the JC-1 dye. […] HeLas were incubated for 2 hours with 10 μM peptide or equivalent conjugate or polymer alone. JC-1 was added at a final concentration of 5 μg/mL and incubated for 15 minutes. Cells were washed 2 times with PBS, trypsinized, and resuspended in 0.5% BSA for flow cytometric analysis. Percent of cells displaying mitochondrial depolarization was quantified based on the number of green fluorescent cells that were negative for red fluorescence. Here, a significant loss of red fluorescent JC-1 aggregates and therefore a loss in mitochondrial polarization was detected following treatment with both the Antp-BH3 peptide and the polymer peptide conjugate (FIG. 21 A).

caspase 3/7 activation [1]: approximately 2.5 fold
Substance: NH2-RQIKIWFQNRRMKWKKMGQVGRQLAIIGDDINRRYDSC-COOH (H-RQIKIWFQNRRMKWKKMGQVGRQLAIIGDDINRRYDSC-OH) [Antp-BH3]
increase in percent of cells exhibiting loss of mitochondrial polarity [2]: approximately 4 fold
